Laboratory results published in article PMC12396409, “Screening and hit evaluation of a microbial metabolite library against the pathogenic Plasmodium falciparum and Toxoplasma gondii parasites” (International Journal for Parasitology: Drugs and Drug …, 2025).
Where two headings read alike, the source gives them in different places.

Experiments:
[1] = tested on: P. falciparum 3D7 parasites; test: P. falciparum growth inhibition assay, 1-cycle (72 h treatment), SYBR DNA staining (library screen at 2 μg/mL and dose-response); assay type: cell-based, Plasmodium falciparum; settings: for activity at 2 µg/mL: Plasmodium falciparum, 3D7
[2] = tested on: T. gondii RH strain (RH-Tub-eYFP) tachyzoites; test: microbe, parasite or virus in culture; assay type: cell-based, Toxoplasma gondii; settings: 72 h; for percent parasite growth at 2 µg/mL: Toxoplasma gondii
[3] = tested on: P. falciparum 3D7 parasites; test: P. falciparum growth inhibition assay, 2-cycle (120 h treatment), delayed-death screen and dose-response; assay type: cell-based, Plasmodium falciparum; settings: for activity at 2 µg/mL: Plasmodium falciparum, 3D7
[4] = library screen at 2 μg/mL, 72 h, % growth, replicate 1
[5] = library screen at 2 μg/mL, 72 h, % growth, replicate 2
[6] = library screen at 2 μg/mL, % growth, replicate 1
[7] = library screen at 2 μg/mL, % growth, replicate 2
[8] = library screen at 2 μg/mL, 120 h, % growth, replicate 1
[9] = library screen at 2 μg/mL, 120 h, % growth, replicate 2
[10] = P. falciparum 3D7, 72 h, parasite screen at 2 μg/mL, % growth, replicate 1
[11] = P. falciparum 3D7, 72 h, parasite screen at 2 μg/mL, % growth, replicate 2
[12] = T. gondii, parasite screen at 2 μg/mL, % growth, replicate 1
[13] = T. gondii, parasite screen at 2 μg/mL, % growth, replicate 2
[14] = P. falciparum 3D7, 120 h, parasite screen at 2 μg/mL, % growth, replicate 1
[15] = P. falciparum 3D7, 120 h, parasite screen at 2 μg/mL, % growth, replicate 2

Row | Structure (SMILES) | Pf_72h_%Growth_Rep1 [1, 4] [%] | Pf_72h_%Growth_Rep2 [1, 5] [%] | Tg_72h_%Growth_Rep1 [2, 6] [%] | Tg_72h_%Growth_Rep2 [2, 7] [%] | Pf_120h_%Growth_Rep1 [3, 8] [%] | Pf_120h_%Growth_Rep2 [3, 9] [%] | Pf_72h_%Growth_Rep1 [1, 10] [%] | Pf_72h_%Growth_Rep2 [1, 11] [%] | Tg_72h_%Growth_Rep1 [2, 12] [%] | Tg_72h_%Growth_Rep2 [2, 13] [%] | Pf_120h_%Growth_Rep1 [3, 14] [%] | Pf_120h_%Growth_Rep2 [3, 15] [%] | other results
1 | COc1cc(-c2ccccn2)nc(/C=N/O)c1SC [Collismycin] | – | – | – | – | – | – | – | – | – | – | – | – | Pf_72h_%Growth_Rep1 ([1]; P. falciparum, 72 h, screen at 2 μg/mL, replicate 1): 3.71%; Pf_72h_%Growth_Rep2 ([1]; P. falciparum, 72 h, screen at 2 μg/mL, replicate 2): 8.55%; Tg_72h_%Growth_Rep1 ([2]; T. gondii, screen at 2 μg/mL, replicate 1): -1.50%; Tg_72h_%Growth_Rep2 ([2]; T. gondii, screen at 2 μg/mL, replicate 2): 0.69%; Pf_120h_%Growth_Rep1 ([3]; P. falciparum, 120 h, screen at 2 μg/mL, replicate 1): -4.02%; Pf_120h_%Growth_Rep2 ([3]; P. falciparum, 120 h, screen at 2 μg/mL, replicate 2): 3.02%
2 | CC[C@H](C)[C@H]1O[C@]2(C=C[C@@H]1C)C[C@@H]1C[C@@H](C/C=C(\C)[C@@H](O[C@H]3C[C@H](OC)[C@@H](O[C@H]4C[C@H](OC)[C@H](NC)[C@H](C)O4)[C@H](C)O3)[C@@H](C)/C=C/C=C3\CO[C@@H]4[C@H](O)C(C)=C[C@@H](C(=O)O1)[C@]34O)O2 [Emamectin B1a] | 2.12 | 0.39 | 22.56 | 92.26 | 3.81 | 6.54 | – | – | – | – | – | – | –
3 | CC[C@H]1OC(=O)[C@H](C)[C@@H](O[C@H]2C[C@@](C)(OC)[C@@H](O)[C@H](C)O2)[C@H](C)[C@@H](O[C@@H]2O[C@H](C)C[C@H](N(C)C)[C@H]2O)[C@](C)(O)C[C@@H](C)C(=NO)[C@H](C)[C@@H](O)[C@]1(C)O [Erythromycin A oxime] | 85.19 | 75.74 | 42.42 | 49.55 | 78.37 | 65.13 | – | – | – | – | – | – | –
4 | COC1=CC(=O)c2c(n(C)c3occc3c2=O)C1=O [BIA-M1955] | – | – | – | – | – | – | 39.08 | 29.78 | 248.99 | 112.97 | 53.96 | 26.88 | –
5 | COc1cccc2oc3c4c(cc(OC)c3c(=O)c12)O[C@H]1OC=C[C@@H]41 [BIA-M1214] | – | – | – | – | – | – | 80.14 | 43.63 | 111.85 | 93.41 | 94.17 | 84.03 | –
6 | Cc1cc(O)cc2oc(=O)c3c(O)cc(O)cc3c12 [Alternariol] | – | – | – | – | – | – | – | – | – | – | – | – | activity at 2 µg/mL ([1]; library screen at 2 μg/mL, 72 h, % growth, replicate 1, read-out: Pf_72h_%Growth_Rep1): 84.6%; activity at 2 µg/mL ([1]; library screen at 2 μg/mL, 72 h, % growth, replicate 2, read-out: Pf_72h_%Growth_Rep2): 91.2%; percent parasite growth at 2 µg/mL ([2]; library screen at 2 μg/mL, % growth, replicate 1, read-out: Tg_72h_%Growth_Rep1): 37.5%; percent parasite growth at 2 µg/mL ([2]; library screen at 2 μg/mL, % growth, replicate 2, read-out: Tg_72h_%Growth_Rep2): 99.9%; activity at 2 µg/mL ([3]; library screen at 2 μg/mL, 120 h, % growth, replicate 1, read-out: Pf_120h_%Growth_Rep1): 171%; activity at 2 µg/mL ([3]; library screen at 2 μg/mL, 120 h, % growth, replicate 2, read-out: Pf_120h_%Growth_Rep2): 90.2%
7 | C[C@H]1NC(=O)[C@@H]2CCCCN2C(=O)CN(C)C(=O)CNC(=O)[C@@H]2CCCCN2C(=O)[C@H](NC(=O)c2nc3ccccc3cc2O)[C@@H](C)NC(=O)[C@@H]2CCCCN2C(=O)CN(C)C(=O)CNC(=O)[C@@H]2CCCCN2C(=O)[C@@H]1NC(=O)c1nc2ccccc2cc1O [Quinaldopeptin] | – | – | – | – | – | – | – | – | – | – | – | – | Pf_72h_%Growth_Rep1 ([1]; P. falciparum, 72 h, parasite screen 2 μg/mL, % growth, replicate 1): 9.69%; Pf_72h_%Growth_Rep2 ([1]; P. falciparum, 72 h, parasite screen 2 μg/mL, % growth, replicate 2): 1.67%; Tg_72h_%Growth_Rep1 ([2]; T. gondii, parasite screen 2 μg/mL, % growth, replicate 1): 3.09%; Tg_72h_%Growth_Rep2 ([2]; T. gondii, parasite screen 2 μg/mL, % growth, replicate 2): 0.65%; Pf_120h_%Growth_Rep1 ([3]; P. falciparum, 120 h, parasite screen 2 μg/mL, % growth, replicate 1): 19.16%; Pf_120h_%Growth_Rep2 ([3]; P. falciparum, 120 h, parasite screen 2 μg/mL, % growth, replicate 2): 8.74%
8 | CC(=O)c1c(O)cc(O)cc1O [BIA-M1378] | – | – | – | – | – | – | 82.52 | 84.34 | 125.07 | 89.41 | 82.35 | 134.53 | –
9 | CC1=CC[C@H]2C(C)(C)CCC[C@]2(C)[C@H]1CO [Drimenol] | 88.25 | 89.37 | 153.93 | 98.02 | 92.79 | 93.83 | – | – | – | – | – | – | –
